In brackets after ≈: the same amount, converted by molar mass. Where two headings read alike, the source gives them in different places.
Columns and labels:
Type in all cases: cell-based
IL-6 = IL-6 level of virus-infected Vero cells (ELISA)
Method: (§1) To enable measurement of IL-6, IL-10 and TNF-α levels, the culture medium of the treated cells was collected in sterile micro-tubes and centrifuged at 3,500 rpm for 20 minutes. The supernatants were carefully collected and diluted with aquadest at a 1:5 volume ratio and vortexed until homogenous. The samples were deposited onto a well-plate, added to ELISA reagents (Bioassay Technology Laboratory, Shanghai, China), and incubated at 37°C for 60 minutes. Reagent substrate solution was then added to the well and incubated for ten minutes at 37°C. The samples were measured for antigen concentration using the optical density (OD) plotted into the standard curves of IL-6, IL-10, and TNF-α.

IL-10 = IL-10 level of virus-infected Vero cells (ELISA)
Method: as §1

SARS-CoV-2 virus = assay: microbe, parasite or virus in culture; conditions: for IC50: Severe acute respiratory syndrome coronavirus 2, Vero
TNF-α = TNF-α level of virus-infected Vero cells (ELISA)
Method: as §1

[1] = Cytotoxicity (MTT) assay of single and dual combinatory drugs; conditions: human; for CC50 at 48 h: CompuSyn, n = 3, read-out: CC50
Method: Each tablet containing drugs was triturated and mixed until homogenous. Approximately 50 mg equivalent mass of drugs were weighed and added to dimethyl sulfoxide in order to solubilize the drugs. The suspension was sonicated in a water bath for 15 minutes before being added to Rosewell Park Memorial Institute (RPMI) media, sonicated again and vortexed to mix it until homogenous. The suspension was then filtered through a polycarbonate membrane with a pore size of 0.45 μm and then a pore size of 0.22 μm under aseptic conditions. The filtrate was mixed with 10% foetal bovine serum and penicillin streptomycin before being vortexed to produce a homogenous mixture to be used as a stock solution. The samples were prepared by diluting the stock solution of each drug with RPMI complete media at an appropriate level of dilution to produce a determined concentration. The dual combinatory drugs mixtures were prepared by mixing appropriate amounts of two drug stock solutions in order to produce a final concentration at the required level. The combinatory drugs were evaluated at both constant and non-constant ratios to evaluate their effects on the cytotoxicity, including; antagonistic, synergistic, or additive. A constant ratio of the mixture was achieved by adding drug solutions at the same ratio, thereby increasing each drug concentration, to produce dose escalation. In contrast, at a non-constant ratio, a fixed determined concentration of drug was added to increased doses of other drug solution in order to produce different levels of drug concentration.
The cytotoxic concentration (CC50) of drugs was performed by means of MTT assay at the Stem Cell Research and Development Center, Universitas Airlangga using human umbilical cord mesenchymal stem cells which had been obtained from human placenta tissue as approved by the Ethical Committee of Universitas Airlangga Hospital (Certificate number 101/KEH/2019 dated January 10, 2019). The cells were prepared as the primary cell culture and used for the cytotoxicity assay because of their sensitivity to chemicals. Cells were seeded into 96-well microplates at a concentration of 1x10^3 cells/well in 100 μL Alpha Minimum Essentials Medium (α-MEM, Gibco, USA) supplemented with 10% foetal bovine serum, 1% penicillin-streptomycin and 1% amphotericin-B. The plates were then incubated in a CO2 incubator at 37°C with 5% CO2 for 24 hours, at which point, the supernatant was replaced with α-MEM containing drugs at each concentration and incubated for a further 48 hours. Approximately 25μL of 3-(4,5-Dimethylthiazol-2-yl)-2,5-diphenyl tetrazolium-bromide (MTT) reagent at a concentration of 5mg/mL was subsequently added to each well and incubated for four hours at 37°C with 5% CO2. Purple formazan crystals were formed and observed under an inverted microscope. Dimethyl sulfoxide was added to each well with the complete solubilisation of formazan crystals subsequently being observed. The greater the number of formazan crystals formed, the lower the toxicity of the samples which were read for optical density of formazan using a multi reader at a measurement wavelength of 595 nm (Promega Glomax, USA). The CC50 value was analyzed by CompuSyn software (the ComboSyn Inc., accessed from www.combosyn.com).
In this study, the cytotoxicity assay was evaluated for single and dual combinatory drugs during a period of 48 hours of drug incubation. This assay was intended to evaluate the toxicity of dual combinatory drugs on normal cells. The combination ratios were calculated taking into consideration the usual therapeutic doses and plasma peak concentrations of the drugs. To determine this cytotoxicity, the drugs were mixed at both constant and non-constant ratios.

[2] = HYDROXYCHLOROQUINE-AZITHROMYCIN series, read-out: Cell Viability (%)
[3] = HYDROXYCHLOROQUINE-DOXYCYCLINE series, read-out: Cell viability (%)
[4] = HYDROXYCHLOROQUINE-FAVIPIRAVIR series, read-out: Cell Viability (%)
[5] = HYDROXYCHLOROQUINE-LOPIRITO series, read-out: Cell Viability (%)

Structure (SMILES): CCN(CCO)CCCC(C)Nc1ccnc2cc(Cl)ccc12 (stereo not shown) [HCQ, Hydroxychloroquine]
- IL-6 (IL-6; 1 μg/mL, 24-h): 15.91 ± 0.99 ng/L
- IL-6 (IL-6; 1 μg/mL, 48-h): 36.41 ± 2.01 ng/L
- IL-6 (IL-6; 1 μg/mL, 72-h): 47.64 ± 2.15 ng/L
- IL-6 (IL-6; 1 μg/mL, 24h): ↘↘ (1 μg/mL; 24h)
- IL-6 (IL-6; 15 μg/mL, 24-h): 15.91 ± 1.41 ng/L
- IL-6 (IL-6; 15 μg/mL, 48-h): 36.41 ± 0.89 ng/L
- IL-6 (IL-6; 15 μg/mL, 72-h): 39.80 ± 0.48 ng/L
- IL-6 (in words) (IL-6; Table 5): reduced
- IL-10 (IL-10; 1 μg/mL, 24-h): 15.36 ± 0.75 pg/mL
- IL-10 (IL-10; 1 μg/mL, 48-h): 96.36 ± 0.71 pg/mL
- IL-10 (IL-10; 1 μg/mL, 72-h): 329.79 ± 0.08 pg/mL
- IL-10 (IL-10; 15 μg/mL, 24-h): 32.43 ± 1.19 pg/mL
- IL-10 (IL-10; 15 μg/mL, 72-h): 258.02 ± 9.73 pg/mL
- IL-10 (IL-10; 15 μg/mL, 48h): ↗↗ (15 μg/mL; 48h)
- IL-10 levels (in words) (IL-10; Table 5): increased
- Virus Titer (SARS-CoV-2 virus; 1 μg/mL, 24-h): 38.64 viral protein fg/mL
- Virus Titer (SARS-CoV-2 virus; 1 μg/mL, 72-h): 37.69 viral protein fg/mL
- Virus Titer (SARS-CoV-2 virus; 15 μg/mL, 48-h): 37.86 viral protein fg/mL
- Drug concentration that produced an undetected virus copy number (SARS-CoV-2 virus; MoI 0.04, at 24, 48, and/or 72 hours' incubation): 37.5 µg/mL
- IC50 (SARS-CoV-2 virus; 24h, MoI 0.04): 9.5 µg/mL (≈ 28.3 µM)
- IC50 (SARS-CoV-2 virus; 48h, MoI 0.04): 4.7 µg/mL (≈ 14 µM)
- IC50 (SARS-CoV-2 virus; 72h, MoI 0.04): 1.4 µg/mL (≈ 4.17 µM)
- Results (virus detection) (SARS-CoV-2 virus; at the drug concentration of the same line of Table 4, MoI 0.04): 48, 72h virus undetected
- TNF-α (TNF-α; 1 μg/mL, 24-h): 4.21 ± 0.31 pg/mL
- TNF-α (TNF-α; 1 μg/mL, 72-h): 548.17 ± 1.44 pg/mL
- TNF-α (TNF-α; 15 μg/mL, 72-h): 411.10 ± 0.18 pg/mL
- TNF-α (TNF-α; 24, 48, and 72 hours, cell without concentration): No effects
- TNF-α levels (in words) (TNF-α; Table 5): no effects
- CC50 at 48 h ([1]; HCQ-AZI experiment (Fig 7)): 5940 µg/mL
- CC50 at 48 h ([1]; HCQ-DOXY experiment (Fig 8)): 1500 µg/mL
- CC50 at 48 h ([1]; HCQ-FAVI experiment (Fig 10)): 11.8 µg/mL
- CC50 at 48 h ([1]; HCQ-LOPIRITO experiment (Fig 11)): 2.51 µg/mL
- viability at 48 h, 0.2 μg/mL [1, 2]: 85.6%
- viability at 48 h, 2 μg/mL [1, 2]: 91%
- viability at 48 h, 10 μg/mL [1, 2]: 94.4%
- viability at 48 h, 100 μg/mL [1, 2]: 46.6%
- viability at 48 h, 400 μg/mL [1, 2]: 68.6%
- viability at 48 h, 0.2 μg/mL [1, 3]: 97.1%
- viability at 48 h, 2 μg/mL [1, 3]: 97%
- viability at 48 h, 10 μg/mL [1, 3]: 98.9%
- viability at 48 h, 100 μg/mL [1, 3]: 62.1%
- viability at 48 h, 400 μg/mL [1, 3]: 56.9%
- viability at 48 h, 0.2 μg/mL [1, 4]: 51.5%
- viability at 48 h, 2 μg/mL [1, 4]: 81.9%
- viability at 48 h, 10 μg/mL [1, 4]: 93.7%
- viability at 48 h, 100 μg/mL [1, 4]: 13.3%
- viability at 48 h, 400 μg/mL [1, 4]: 9.5%
- viability at 48 h, 0.2 μg/mL [1, 5]: 35.9%
- viability at 48 h, 2 μg/mL [1, 5]: 61.7%
- viability at 48 h, 10 μg/mL [1, 5]: 81.4%
- viability at 48 h, 100 μg/mL [1, 5]: 33%
- viability at 48 h, 400 μg/mL [1, 5]: 7.4%
